According to patent publication US10065990B2, “Cyclic peptide compound, and preparation method, pharmaceutical composition and use thereof” (HANGZHOU GUANYU BIO-MEDICAL CO., LTD, priority 2013, dated 2018):
Like-named read-outs stand apart in the source and are kept apart here.

Experiments:
[1] = tested on: U937 (human leukemia cells); experiment: MTT cancer cell growth inhibition; assay type: cell-based; conditions: MTT, 72 hours incubation, read-out: GI50 U93
Excerpt: (§1) MTT assay principle is yellow MTT can penetrate membrane into the cell, succinic dehydrogenase of the mitochondria in living cells can make exogenous MTT reduction of insoluble in water of blue-violet acicular formazan for crystallization and deposition in the cell, crystallization can be dissolved dimethyl sulfoxide (DMSO) solution, detected its absorbance at 490 nm/570 nm wavelength by enzyme-linked immunosorbent assay, which can reflect the number of cells.
(§2) Using DMEM+10% FBS culture medium or using 1640+10% FBS culture, respectively.
(§3) a) Cells were seeded in 96-well plates with the inoculation of 1500/well, 190 μl/hole, 37° C., 5% of CO2 incubator overnight;
(§4) b) The next day each well was added 10 μl of different drugs. The final concentration of drug was 10^−5˜10^−10M, three parallel holes; 37° C., 5% CO2 culture incubator for 72 hours incubation;
(§5) c) Per well was added 20 μl 5 mg/ml of MTT, 37° C., 5% CO2 culture incubator for 4 hours incubation;
(§6) d) The supernatant was discarded. Each well was added 100 μl of DMSO and oscillation;
(§7) e) 570 nm readings. Calculate cell viability. GI50 calculation based on the results.

[2] = tested on: Bel-7402 (human hepatoma cells); experiment: MTT cancer cell growth inhibition; assay type: cell-based; conditions: MTT, 72 hours incubation, Bel-7402 cells, read-out: GI50 Bel-7402
Excerpt: as §1, §2, §3, §4, §5, §6, §7

[3] = tested on: lncap (prostate cancer cells); experiment: MTT cancer cell growth inhibition; assay type: cell-based; conditions: MTT, 72 hours incubation, read-out: GI50 lnca
Excerpt: as §1, §2, §3, §4, §5, §6, §7

[4] = tested on: H1975 (non-small cell lung adenocarcinoma); experiment: MTT cancer cell growth inhibition; assay type: cell-based; conditions: MTT, 72 hours incubation, H1975 cells, read-out: GI50 H1975
Excerpt: as §1, §2, §3, §4, §5, §6, §7

[5] = tested on: DU145 (human prostate cancer cells); experiment: MTT cancer cell growth inhibition; assay type: cell-based; conditions: MTT, 72 hours incubation, read-out: GI50 Du1
Excerpt: as §1, §2, §3, §4, §5, §6, §7

[6] = tested on: KBM-5 (human chronic myelogenous leukemia); experiment: MTT cancer cell growth inhibition; assay type: cell-based; conditions: MTT, 72 hours incubation, KBM-5 cells, read-out: GI50 KBM-5
Excerpt: as §1, §2, §3, §4, §5, §6, §7

[7] = tested on: BGC-823 (human gastric cancer cells); experiment: MTT cancer cell growth inhibition; assay type: cell-based; conditions: MTT, 72 hours incubation, read-out: GI50 BG
Excerpt: as §1, §2, §3, §4, §5, §6, §7

[8] = tested on: SGC-7901 (human gastric cancer cells); experiment: MTT cancer cell growth inhibition; assay type: cell-based; conditions: MTT, 72 hours incubation, SGC-7901 cells, read-out: GI50 SGC-7901
Excerpt: as §1, §2, §3, §4, §5, §6, §7

[9] = tested on: MCF-7 (human breast cancer cells); experiment: MTT cancer cell growth inhibition; assay type: cell-based; conditions: 72 hours incubation, read-out: GI50 MCF
Excerpt: as §1, §2, §3, §4, §5, §6, §7

[10] = tested on: MOLT-4 (human acute lymphoblastic leukemia cells); experiment: MTT cancer cell growth inhibition; assay type: cell-based; conditions: MTT, 72 hours incubation, read-out: GI50 Mol
Excerpt: as §1, §2, §3, §4, §5, §6, §7

[11] = tested on: PANC-1 (Pac-1, human pancreatic cancer cells); experiment: MTT cancer cell growth inhibition; assay type: cell-based; conditions: MTT, 72 hours incubation, read-out: GI50 PAN
Excerpt: as §1, §2, §3, §4, §5, §6, §7

[12] = tested on: HT1080 (human fibrosarcoma cells); experiment: MTT cancer cell growth inhibition; assay type: cell-based; conditions: MTT, 72 hours incubation, read-out: GI50 HT1
Excerpt: as §1, §2, §3, §4, §5, §6, §7

[13] = tested on: MDA-MB-231 (breast cancer cells); experiment: MTT cancer cell growth inhibition; assay type: cell-based
Excerpt: as §1, §2, §3, §4, §5, §6, §7

[14] = tested on: K562 (human leukemia cells); experiment: MTT cancer cell growth inhibition; assay type: cell-based; conditions: MTT, 72 hours incubation, K562 cells, read-out: GI50 K562
Excerpt: as §1, §2, §3, §4, §5, §6, §7

[15] = tested on: Hela (human cervical cancer cells); experiment: MTT cancer cell growth inhibition; assay type: cell-based; conditions: MTT, 72 hours incubation, read-out: GI50 Hela
Excerpt: as §1, §2, §3, §4, §5, §6, §7

[16] = tested on: HCC827 (human non-small cell lung cancer cells); experiment: MTT cancer cell growth inhibition; assay type: cell-based; conditions: MTT, 72 hours incubation, HCC827 cells, read-out: GI50 HCC827
Excerpt: as §1, §2, §3, §4, §5, §6, §7

[17] = tested on: Huh-7 (human hepatoma cells); experiment: MTT cancer cell growth inhibition; assay type: cell-based; conditions: MTT, 72 hours incubation, Huh-7 cells, read-out: GI50 Huh-7
Excerpt: as §1, §2, §3, §4, §5, §6, §7

[18] = tested on: A549 (human lung cancer cells); experiment: MTT cancer cell growth inhibition; assay type: cell-based; conditions: MTT, 72 hours incubation, read-out: GI50 A54
Excerpt: as §1, §2, §3, §4, §5, §6, §7

[19] = tested on: KBM5-T315I (human chronic myelogenous leukemia); experiment: MTT cancer cell growth inhibition; assay type: cell-based; conditions: MTT, 72 hours incubation, KBM5-T315I cells, read-out: GI50 KBM5-T315I
Excerpt: as §1, §2, §3, §4, §5, §6, §7

[20] = molecular target: T1, HDAC7 (Homo sapiens, UniProt Q8WUI4); experiment: HDAC biochemical activity measurement (fluorescent substrate deacetylation);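 also: fluorogenic deacetylation assay using acetyl-lysine substrate at 20 µM, enzyme and compound incubated 30 min at 37 °C, then developer added, fluorescence read at 360/460 nm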; conditions: HDAC7; 37° C. 30 minutes
T1 sequence (Q8WUI4 1-952): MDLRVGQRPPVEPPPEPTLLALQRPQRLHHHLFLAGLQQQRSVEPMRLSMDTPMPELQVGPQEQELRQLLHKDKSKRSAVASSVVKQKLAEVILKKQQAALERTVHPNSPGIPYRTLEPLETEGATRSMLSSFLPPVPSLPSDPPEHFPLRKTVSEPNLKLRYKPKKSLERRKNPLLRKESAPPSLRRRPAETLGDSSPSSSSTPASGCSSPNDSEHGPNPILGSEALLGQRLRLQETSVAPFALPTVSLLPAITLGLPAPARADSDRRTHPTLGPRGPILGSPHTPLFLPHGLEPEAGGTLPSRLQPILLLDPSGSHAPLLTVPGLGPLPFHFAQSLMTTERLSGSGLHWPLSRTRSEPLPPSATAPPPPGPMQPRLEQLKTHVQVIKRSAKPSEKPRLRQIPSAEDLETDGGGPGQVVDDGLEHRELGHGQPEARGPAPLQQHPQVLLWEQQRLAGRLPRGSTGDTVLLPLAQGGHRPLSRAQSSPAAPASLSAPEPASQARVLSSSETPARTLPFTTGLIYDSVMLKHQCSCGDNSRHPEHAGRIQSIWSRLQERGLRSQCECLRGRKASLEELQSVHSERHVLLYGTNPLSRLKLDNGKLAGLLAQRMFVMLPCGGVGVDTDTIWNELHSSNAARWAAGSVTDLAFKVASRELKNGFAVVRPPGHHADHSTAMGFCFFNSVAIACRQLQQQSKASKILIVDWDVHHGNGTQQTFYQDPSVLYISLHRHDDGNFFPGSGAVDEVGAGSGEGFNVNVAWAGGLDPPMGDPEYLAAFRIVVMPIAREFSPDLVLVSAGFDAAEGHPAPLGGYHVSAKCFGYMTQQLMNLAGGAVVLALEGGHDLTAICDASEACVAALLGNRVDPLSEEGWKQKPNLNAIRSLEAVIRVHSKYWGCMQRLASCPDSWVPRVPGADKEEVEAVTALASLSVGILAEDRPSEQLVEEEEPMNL

[21] = tested on: N-87 (human gastric cancer cells); experiment: MTT cancer cell growth inhibition; assay type: cell-based; conditions: MTT, 72 hours incubation, N-87 cells, read-out: GI50 N-87
Excerpt: as §1, §2, §3, §4, §5, §6, §7

[22] = Homo sapiens, MDA-MB-231, 72 h, read-out: GI50 MDA-MB-231, MTT, 72 hours incubation, MDA-MB-231 cells

GI50 [1]	GI50 ([2]; Homo sapiens, Bel-7402, 72 h)	GI50 [3]	GI50 ([4]; Homo sapiens, NCI-H1975, 72 h)	GI50 [5]	GI50 ([6]; Homo sapiens, KBM5, 72 h)	GI50 [7]	GI50 ([8]; Homo sapiens, SGC-7901, 72 h)	GI50 [9]	GI50 [10]	GI50 [11]	GI50 [12]	GI50 [13, 22]	GI50 ([14]; Homo sapiens, K562, 72 h)	GI50 [15]	GI50 ([16]; Homo sapiens, HCC827, 72 h)	GI50 ([17]; Homo sapiens, Huh-7, 72 h)	GI50 [18]	GI50 ([19]; Homo sapiens, 72 h)	IC50 HDAC7 [20]	Compound	further results
–	62 nM	–	59 nM	–	41 nM	–	57 nM	–	–	–	–	13 nM	17 nM	–	62 nM	48 nM	–	29 nM	no activity	C/C=C1\NC(=O)c2cc(F)cc(n2)CNC(=O)C[C@@H](/C=C/CCS)OC(=O)[C@H](CC)NC1=O [Compound 110]	GI50 ([1]; Homo sapiens, U-937, 72 h): 60 nM; GI50 ([3]; Homo sapiens, LNCaP, 72 h): 30 nM; GI50 ([21]; Homo sapiens, 72 h): 35 nM; GI50 ([5]; Homo sapiens, DU-145, 72 h): 50 nM; GI50 ([7]; Homo sapiens, BGC-823, 72 h): 30 nM; GI50 ([9]; Homo sapiens, MCF7, 72 h): 30 nM; GI50 ([10]; Homo sapiens, MOLT-4, 72 h): 30 nM; GI50 ([12]; Homo sapiens, HT-1080, 72 h): 70 nM; GI50 ([15]; Homo sapiens, HeLa, 72 h): 60 nM; GI50 ([18]; Homo sapiens, A549, 72 h): 60 nM
30 nM	–	20 nM	–	40 nM	–	60 nM	–	60 nM	20 nM	80 nM	80 nM	–	–	70 nM	–	–	30 nM	–	no activity	C/C=C1\NC(=O)c2ccc(F)c(n2)CNC(=O)C[C@@H](/C=C/CCSC(C)=O)OC(=O)[C@H](C(C)C)NC1=O (single isomer, unassigned) [Example 50]	–

Second part, the compound before the results:

Compound	GI50 [1]	GI50 ([2]; Homo sapiens, Bel-7402, 72 h)	GI50 [3]	GI50 ([4]; Homo sapiens, NCI-H1975, 72 h)	GI50 [5]	GI50 ([6]; Homo sapiens, KBM5, 72 h)	GI50 [7]	GI50 ([8]; Homo sapiens, SGC-7901, 72 h)	GI50 [9]	GI50 [10]	GI50 [11]	GI50 [12]	GI50 [13, 22]	GI50 ([14]; Homo sapiens, K562, 72 h)	GI50 [15]	GI50 ([16]; Homo sapiens, HCC827, 72 h)	GI50 ([17]; Homo sapiens, Huh-7, 72 h)	GI50 [18]	GI50 ([19]; Homo sapiens, 72 h)	IC50 HDAC7 [20]	further results
C/C=C1\NC(=O)c2nc(ccc2F)CNC(=O)C[C@@H](/C=C/CCSC(C)=O)OC(=O)[C@H](C(C)C)NC1=O [Compound 93]	20 nM	34 nM	30 nM	27 nM	30 nM	53 nM	20 nM	68 nM	30 nM	30 nM	30 nM	30 nM	38 nM	37 nM	50 nM	34 nM	38 nM	60 nM	34 nM	no activity	–
C/C=C1\NC(=O)c2nc(ccc2F)CNC(=O)C[C@@H](/C=C/CCSC(C)=O)OC(=O)[C@H](CC)NC1=O [Example 57]	–	–	–	–	–	–	–	–	–	–	–	–	–	–	–	–	–	–	–	–	GI50 [2]: 73 nM; GI50 [21]: 53 nM; GI50 [4]: 55 nM; GI50 [6]: 74 nM; GI50 [8]: 92 nM; GI50 ([13]; read-out: GI50 MDA-MB-231, MTT, 72 hours incubation, MDA-MB-231 cells): 28 nM; GI50 [14]: 35 nM; GI50 [16]: 73 nM; GI50 [17]: 28 nM; GI50 [19]: 54 nM
C/C=C1\NC(=O)c2ccc(F)c(n2)CNC(=O)C[C@@H](/C=C/CCSC(C)=O)OC(=O)[C@H](C(C)C)NC1=O [Compound 95]	–	83 nM	–	35 nM	–	76 nM	20 nM	42 nM	–	–	–	–	22 nM	26 nM	–	83 nM	22 nM	–	38 nM	no activity	GI50 ([1]; Homo sapiens, U-937, 72 h): 30 nM; GI50 ([3]; Homo sapiens, LNCaP, 72 h): 20 nM; GI50 ([5]; Homo sapiens, DU-145, 72 h): 20 nM; GI50 ([9]; Homo sapiens, MCF7, 72 h): 30 nM; GI50 ([10]; Homo sapiens, MOLT-4, 72 h): 20 nM; GI50 ([11]; Homo sapiens, PANC-1, 72 h): 80 nM; GI50 ([12]; Homo sapiens, HT-1080, 72 h): 80 nM; GI50 ([15]; Homo sapiens, HeLa, 72 h): 70 nM; GI50 ([18]; Homo sapiens, A549, 72 h): 40 nM
